“Also recorded” adds a separate entry of the source.
Tests used:
[1] = active component; cited from earlier work
[2] = pH of alkalizer composition
[3] = alkalizer composition
[4] = alkalizer composition; 22° C., T-F spindle, 6 rpm
keratin in hair = assay: DSC analysis: keratin denaturation temperature of treated hair
[5] = Tensile strength: break stress of treated hair fibers; conditions: hair fibers after alkalizer composition + oxidant
[6] = single alkalizer compositions, Table 5
[7] = single alkalizer compositions, Table 4A

- pH [2]: 10.58
- Alkalinity [3]: 2.32 mL/g
- Viscosity (cP × 10^5) [4]: 2.77 cP × 10^5
- Denaturation Temperature (° C.) (keratin in hair; single alkalizer composition + volume 40 (12%) oxidizer developer on hair tresses, 37° C., 45 minutes, virgin hair 150.42): 147.80 °C
- ΔT (change in denaturation temperature) TVirgin-TAlkalizer (keratin in hair; [7]): 2.62
SMILES: CN(C)CCCO [DMAP, 3-Dimethyl-amino-1-propanol]
- pKa [1]: 9.27
- Lifting level normalized to NH3•H2O [6]: 0.53
- Relative lifting level in percentage (LVirgin-LAlkalizer)/(LVirgin-LNaOH) [6]: 45.45%
- ΔL (change in color lifting) LVirgin-LAlkalizer [6]: −8
- lifting of natural hair color, comparison in words (single alkalizer/oxidizer mixtures): performed significantly less well than ammonium hydroxide
- hair damage / denaturation temperature, comparison in words (keratin in hair; DSC, single alkalizer compositions): performed the closest to ammonium hydroxide; also recorded: less damaging to hair than the ammonium hydroxide composition; also recorded: a better performer than ammonia
- % Relative damage level compared to NaOH (TVirgin-TAlkalizer)/(TVirgin-TNaOH) (keratin in hair; [7]): 18.33%
- Damage level normalized to NH3•H2O (keratin in hair; [7]): 0.94
- break stress / fiber damage, comparison in words [5]: cause a similar amount of damage or less damage than their primary amine analogs

Reference: patent US20220362122A1, “Hair Treatment Compositions With Amine Derivatives” (ELC Management LLC, priority 2021, published 2022)
